# According to patent US20050143927A1, “Method for estimating or predicting the anti-tumor activity of a compound and for estimating or predicting the tumor growth in mammals” (Pharmacia Italia S.p.A., priority 2002, published 2005):
# Experiment: Two-compartment PK model fitted to plasma concentration of Drug-A (Experiment-A)
# Conditions: for Vd: male, athymic nude, mouse, iv; for Vd / A (PK macro-constant) / Alpha (PK macro-constant) / B (PK macro-constant) / Beta (PK macro-constant): plasma
# [1] = dose 20 mg/kg iv-bolus q4dx3, mean of four mice
# [2] = dose 30 mg/kg iv-bolus q4dx3, mean of four mice
# [3] = dose 40 mg/kg iv-bolus q4dx3, mean of four mice
# [4] = mouse 0, 20 mg/kg iv-bolus q4dx3
# [5] = mouse 26, 40 mg/kg iv-bolus q4dx3
# [6] = mouse 28, 30 mg/kg iv-bolus q4dx3
# [7] = mouse 31, 20 mg/kg iv-bolus q4dx3
# [8] = mouse 55, 20 mg/kg iv-bolus q4dx3
# [9] = mouse 59, 30 mg/kg iv-bolus q4dx3
# [10] = mouse 64, 30 mg/kg iv-bolus q4dx3
# [11] = mouse 69, 20 mg/kg iv-bolus q4dx3
# [12] = mouse 78, 40 mg/kg iv-bolus q4dx3
# [13] = mouse 80, 40 mg/kg iv-bolus q4dx3
# [14] = mouse 81, 40 mg/kg iv-bolus q4dx3
# [15] = mouse 88, 30 mg/kg iv-bolus q4dx3
smiles,measurement,setting,value
"CC(=O)O[C@H]1C(=O)[C@@]2(C)[C@H]([C@H](OC(=O)c3ccccc3)[C@]3(O)C[C@H](OC(=O)[C@H](O)[C@@H](NC(=O)c4ccccc4)c4ccccc4)C(C)=C1C3(C)C)[C@]1(OC(C)=O)CO[C@@H]1C[C@@H]2O [Drug-A, paclitaxel]","A (PK macro-constant), mean",[1],34294.5621
same,"B (PK macro-constant), mean",[1],3467.5180
same,"K10, mean",[1],41.0979 day⁻¹
same,"K12, mean",[1],16.4430 day⁻¹
same,"K21, mean",[1],12.4026 day⁻¹
same,"α (PK macro-constant), mean",[1],62.0545
same,"β (PK macro-constant), mean",[1],7.8890
same,"A (PK macro-constant), mean",[2],56632.6519
same,"B (PK macro-constant), mean",[2],759.8587
same,"K10, mean",[2],20.8063 day⁻¹
same,"K12, mean",[2],2.2085 day⁻¹
same,"K21, mean",[2],3.4809 day⁻¹
same,"α (PK macro-constant), mean",[2],23.2801
same,"β (PK macro-constant), mean",[2],3.2157
same,"A (PK macro-constant), mean",[3],62064.8954
same,"B (PK macro-constant), mean",[3],7999.4363
same,"K10, mean",[3],20.0530 day⁻¹
same,"K12, mean",[3],9.5544 day⁻¹
same,"K21, mean",[3],6.2425 day⁻¹
same,"α (PK macro-constant), mean",[3],32.9706
same,"β (PK macro-constant), mean",[3],2.8793
same,Vd,"20 mg/kg, Vd (apparent volume of distribution of the central compartment), mouse 0, 20 mg/kg iv-bolus q4dx3",9.51 L/kg
same,Vd,"20 mg/kg, Vd (apparent volume of distribution of the central compartment), mouse 31, 20 mg/kg iv-bolus q4dx3",1.34 L/kg
same,Vd,"20 mg/kg, Vd (apparent volume of distribution of the central compartment), mouse 55, 20 mg/kg iv-bolus q4dx3",0.719 L/kg
same,Vd,"20 mg/kg, Vd (apparent volume of distribution of the central compartment), mouse 69, 20 mg/kg iv-bolus q4dx3",0.188 L/kg
same,Vd,"20 mg/kg, Vd, mean, dose 20 mg/kg iv-bolus q4dx3, mean of four mice",2.94 L/kg
same,Vd,"30 mg/kg, Vd (apparent volume of distribution of the central compartment), mouse 28, 30 mg/kg iv-bolus q4dx3",0.528 L/kg
same,Vd,"30 mg/kg, Vd (apparent volume of distribution of the central compartment), mouse 59, 30 mg/kg iv-bolus q4dx3",0.373 L/kg
same,Vd,"30 mg/kg, Vd (apparent volume of distribution of the central compartment), mouse 64, 30 mg/kg iv-bolus q4dx3",0.745 L/kg
same,Vd,"30 mg/kg, Vd (apparent volume of distribution of the central compartment), mouse 88, 30 mg/kg iv-bolus q4dx3",0.578 L/kg
same,Vd,"30 mg/kg, Vd, mean, dose 30 mg/kg iv-bolus q4dx3, mean of four mice",0.556 L/kg
same,Vd,"40 mg/kg, Vd (apparent volume of distribution of the central compartment), mouse 26, 40 mg/kg iv-bolus q4dx3",5.07 L/kg
same,Vd,"40 mg/kg, Vd (apparent volume of distribution of the central compartment), mouse 78, 40 mg/kg iv-bolus q4dx3",1.87 L/kg
same,Vd,"40 mg/kg, Vd (apparent volume of distribution of the central compartment), mouse 80, 40 mg/kg iv-bolus q4dx3",0.234 L/kg
same,Vd,"40 mg/kg, Vd (apparent volume of distribution of the central compartment), mouse 81, 40 mg/kg iv-bolus q4dx3",0.502 L/kg
same,Vd,"40 mg/kg, Vd, mean, dose 40 mg/kg iv-bolus q4dx3, mean of four mice",1.92 L/kg
same,K10 (constant rate of the elimination process),[4],25.15 day⁻¹
same,K12 (interchange constant rate),[4],15.64 day⁻¹
same,K21 (interchange constant rate),[4],5.819 day⁻¹
same,A (PK macro-constant),[4],1975
same,Alpha (PK macro-constant),[4],43.22
same,B (PK macro-constant),[4],128.5
same,Beta (PK macro-constant),[4],3.386
same,K10 (constant rate of the elimination process),[5],14.22 day⁻¹
same,K12 (interchange constant rate),[5],1.663 day⁻¹
same,K21 (interchange constant rate),[5],3.76 day⁻¹
same,A (PK macro-constant),[5],7586
same,Alpha (PK macro-constant),[5],16.38
same,B (PK macro-constant),[5],297.8
same,Beta (PK macro-constant),[5],3.265
same,K10 (constant rate of the elimination process),[6],20.98 day⁻¹
same,K12 (interchange constant rate),[6],1.774 day⁻¹
same,K21 (interchange constant rate),[6],6.257 day⁻¹
same,A (PK macro-constant),[6],54798.379413
same,Alpha (PK macro-constant),[6],23.4
same,B (PK macro-constant),[6],2069
same,Beta (PK macro-constant),[6],5.61
same,K10 (constant rate of the elimination process),[7],22.85 day⁻¹
same,K12 (interchange constant rate),[7],3.375 day⁻¹
same,K21 (interchange constant rate),[7],5.126 day⁻¹
same,A (PK macro-constant),[7],14365.650820
same,Alpha (PK macro-constant),[7],27.02
same,B (PK macro-constant),[7],518.5
same,Beta (PK macro-constant),[7],4.336
same,K10 (constant rate of the elimination process),[8],35.24 day⁻¹
same,K12 (interchange constant rate),[8],3.303 day⁻¹
same,K21 (interchange constant rate),[8],3.947 day⁻¹
same,A (PK macro-constant),[8],27526.035314
same,Alpha (PK macro-constant),[8],38.91
same,B (PK macro-constant),[8],293.5
same,Beta (PK macro-constant),[8],3.575
same,K10 (constant rate of the elimination process),[9],18.65 day⁻¹
same,K12 (interchange constant rate),[9],4.915 day⁻¹
same,K21 (interchange constant rate),[9],0.005329 day⁻¹
same,A (PK macro-constant),[9],80469.811028
same,Alpha (PK macro-constant),[9],23.57
same,B (PK macro-constant),[9],3.797
same,Beta (PK macro-constant),[9],0.004217
same,K10 (constant rate of the elimination process),[10],17.25 day⁻¹
same,K12 (interchange constant rate),[10],0.5748 day⁻¹
same,K21 (interchange constant rate),[10],3.444 day⁻¹
same,A (PK macro-constant),[10],39912.523664
same,Alpha (PK macro-constant),[10],17.96
same,B (PK macro-constant),[10],374.8
same,Beta (PK macro-constant),[10],3.308
same,K10 (constant rate of the elimination process),[11],81.15 day⁻¹
same,K12 (interchange constant rate),[11],43.46 day⁻¹
same,K21 (interchange constant rate),[11],34.72 day⁻¹
same,A (PK macro-constant),[11],93311.275568
same,Alpha (PK macro-constant),[11],139.1
same,B (PK macro-constant),[11],12929.572382
same,Beta (PK macro-constant),[11],20.26
same,K10 (constant rate of the elimination process),[12],18.81 day⁻¹
same,K12 (interchange constant rate),[12],1.318 day⁻¹
same,K21 (interchange constant rate),[12],0.03721 day⁻¹
same,A (PK macro-constant),[12],21408.348297
same,Alpha (PK macro-constant),[12],20.13
same,B (PK macro-constant),[12],2.6
same,Beta (PK macro-constant),[12],0.03477
same,K10 (constant rate of the elimination process),[13],30.07 day⁻¹
same,K12 (interchange constant rate),[13],35.07 day⁻¹
same,K21 (interchange constant rate),[13],21.07 day⁻¹
same,A (PK macro-constant),[13],139526.742848
same,Alpha (PK macro-constant),[13],78.1
same,B (PK macro-constant),[13],31692.453321
same,Beta (PK macro-constant),[13],8.112
same,K10 (constant rate of the elimination process),[14],17.11 day⁻¹
same,K12 (interchange constant rate),[14],0.1688 day⁻¹
same,K21 (interchange constant rate),[14],0.1062 day⁻¹
same,A (PK macro-constant),[14],79738.401451
same,Alpha (PK macro-constant),[14],17.28
same,B (PK macro-constant),[14],4.845
same,Beta (PK macro-constant),[14],0.1051
same,K10 (constant rate of the elimination process),[15],26.34 day⁻¹
same,K12 (interchange constant rate),[15],1.57 day⁻¹
same,K21 (interchange constant rate),[15],4.217 day⁻¹
same,A (PK macro-constant),[15],51349.893679
same,Alpha (PK macro-constant),[15],28.19
same,B (PK macro-constant),[15],591.6
same,Beta (PK macro-constant),[15],3.941
